From patent US7276337B2, “Compositions and methods for visual ribonuclease detection assays” (Integrated DNA Technologies, Inc., priority 2000, dated 2007)

Tests used:
[1] = tested on: Substrate oligonucleotide SEQ ID NO:30; experiment: RNase testing of commercially obtained reagents, visual detection; format: biochemical; design: key: +++ = maximum intensity; ++ = moderate intensity; + = faint but above background; − = negative (identical to background); details: reagent diluted 1:10 with Assay Buffer, 50 pmoles Substrate SEQ ID NO:30, 60 minutes at 37° C., UV
Protocol: Enzymes were obtained from New England Biolabs (NEB) or Ambion as indicated. Test sample (10 ul) was mixed with 1× buffer (90 ul) for a final volume of 100 ul with 50 pmoles of Substrate SEQ ID NO:30 in 0.5 ml RNase-free microtubes. Assay Mixes were incubated 60 minutes at 37° C. and visually examined under UV excitation for fluorescence emission. After scoring for results, 1 ul (1 ug) of RNase A was added to each tube. The Assay was incubated an additional 5 minutes at 37° C. and re-scored. The addition of RNase A represents a control for the absence of an Assay inhibitor and validates negative results. The “plus RNase A” control was omitted whenever the primary assay was already positive.
Table 9: RNase testing of commercially available reagents. A series of commercially available reagents were diluted 1:10 with Assay Buffer to a final volume of 100 ul. An RNase detection assay was performed using the method of the invention with Substrate oligonucleotide SEQ ID NO:30. Reactions were examined for fluorescence emission by visual inspection using an ultraviolet (UV) light source for excitation. Results were scored as +++, ++, +, or − based on relative signal intensity. As a control, RNase A (1 ug) was added to negative reactions and the Assay was re-scored. ND=not done.

[2] = target: T1, Ribonuclease A (Bos taurus, UniProt P61823); experiment: Visual detection ribonuclease assay, cleavage of Substrate ODN by RNase A; format: biochemical, mammalian; design: key to Sensitivity of Substrate ODN to Ribonuclease A, relative signal intensity: +++ = maximum intensity; ++ = moderate intensity; + = faint but above background; − = negative (identical to background); details: visual inspection, UV excitation, Substrate 500 nM, 37° C. 60 minutes
T1 sequence (P61823 27-150): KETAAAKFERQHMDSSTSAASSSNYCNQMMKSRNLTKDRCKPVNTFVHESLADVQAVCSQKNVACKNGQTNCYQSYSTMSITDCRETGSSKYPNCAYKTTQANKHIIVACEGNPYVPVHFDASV
Protocol: Nuclease assays were conducted using the methods of the invention. SEQ ID NO:2 and SEQ ID NO:30 oligonucleotides were individually mixed in 1× Assay Buffer at a concentration of 500 nM (50 pmoles ODN in 100 ul volume) in thin-walled, UV transparent microtubes. RNase A (1 ul, diluted to 0;1 ug/ul) was added to the respective Assay Mixes. […] Assays were set up directly in microtubes as follows:
Assay Mixes were incubated at room temperature for 10 minutes. Assays were visually examined for fluorescence emission directly in the assay tubes without further manipulation. Tubes were suspended above an ultraviolet light source, visually inspected, and photographed using a digital camera. […] The “positive” and “control” reactions appeared markedly different and were easily distinguished. […] The “positive” and “control” reactions were not markedly different to visual inspection.
(§1) Nuclease assays were conducted using the method of the invention with both visual and fluorometric detection methods. Substrates were individually mixed in 1× Assay Buffer at a concentration of 50 nM (50 pmoles oligonucleotide in 1 ml volume) for fluorometric detection or at a concentration of 500 nM (50 pmoles of oligonucleotide in 100 ul volume) for visual detection. Test nucleases were added to respective Assay Mixes beginning at 1 ul stock reagent and proceeding with a 1:10 serial dilution until undetectable. Reaction mixes were incubated at 37° C. for 60 minutes. Fluorometric detection was performed as outlined in Example 2. Visual detection was performed as outlined in Example 1.
(§2) Table 6: Sensitivity of different Substrate ODNs to Ribonuclease A. A series of Substrate ODNs were synthesized and tested for sensitivity to RNase A degradation. Stock enzyme was serial diluted to achieve final concentrations of 1 ng/ml, 100 pg/ml, and 10 pg/ml as indicated. Reactions were examined for fluorescence emission by visual inspection using an ultraviolet (UV) light source for excitation. Results were scored as +++, ++, +, or − based on relative signal intensity.
(§3) It is commonly accepted that fluorometry provides for high sensitivity. To be useful, the visual method must also offer high sensitivity. Assays were conducted using the method of the invention with visual detection. Substrate SEQ ID NO:30 was mixed in 1× Assay Buffer at a concentration of 500 nM (50 pmoles ODN in 100 ul volume) in thin-walled, UV transparent tubes. […] Dilutions of stock RNase A, RNase 1, and RNase T1 were made in water. Undiluted and diluted nuclease (1 ul) was added to respective 100 ul Assay Mixes resulting in final dilution factors of 10^−2, 10^−3, 10^−4, 10^−5, 10^−6, and 10^−7. Assays were incubated at room temperature for 10 minutes and visually examined for fluorescence emission with UV excitation. […] The experiment took about 30 minutes to perform, including 15 minutes to set-up serial dilutions, 10 minutes incubation, and 5 minutes to visualize and photograph. Thus the method of the invention allows for a rapid, simple, and convenient visual assay for the presence of ribonuclease activity.

[3] = target: T2, Ribonuclease T1 (Aspergillus oryzae, UniProt P00651); experiment: Visual detection ribonuclease assay, cleavage of Substrate ODN by RNase T1; format: biochemical; design: key to Sensitivity of Substrate ODN to Ribonuclease T1, relative signal intensity: +++ = maximum intensity; ++ = moderate intensity; + = faint but above background; − = negative (identical to background); details: visual inspection, UV excitation, Substrate 500 nM, 37° C. 60 minutes
T2 sequence (P00651 27-130): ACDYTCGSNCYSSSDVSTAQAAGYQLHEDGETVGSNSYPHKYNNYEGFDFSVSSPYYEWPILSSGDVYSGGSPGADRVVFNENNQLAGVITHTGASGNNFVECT
Protocol: as §1
as §2, with “Table 7:” for “Table 6:”, “Ribonuclease T1.” for “Ribonuclease A.”, “RNase T1” for “RNase A”, “of 0.001 units/ml, 0.0001 units/ml,” for “of 1 ng/ml, 100 pg/ml,”, “and 0.00001 units/ml” for “and 10 pg/ml”
as §3

Row | Substance | Assay Results (RNase activity in reagent, relative signal intensity) [1] | Sensitivity of Substrate ODN to Ribonuclease A, relative signal intensity ([2]; RNase A 10 pg/ml) | Sensitivity of Substrate ODN to Ribonuclease A, relative signal intensity ([2]; RNase A 100 pg/ml) | Sensitivity of Substrate ODN to Ribonuclease A, relative signal intensity ([2]; RNase A 1 ng/ml) | Sensitivity of Substrate ODN to Ribonuclease T1, relative signal intensity ([3]; RNase T1 10^−3 units/ml) | Sensitivity of Substrate ODN to Ribonuclease T1, relative signal intensity ([3]; RNase T1 10^−4 units/ml) | Sensitivity of Substrate ODN to Ribonuclease T1, relative signal intensity ([3]; RNase T1 10^−5 units/ml)
1 | T7 RNA Polymerase: commercial enzyme reagent from Ambion, sold as RNase-free | − |  |  |  |  |  | 
2 | Super Taq: commercial enzyme reagent from Ambion, sold as RNase-free | − |  |  |  |  |  | 
3 | 5′ Fluorescein-AcgaA-Dabcyl 3′ (NACGAAN; 5' fluorescein and 3' Dabcyl labels, nucleotide chemistry not given here) [SEQ ID NO:12] |  | − | − | ++ | +++ | ++ | −
4 | 5′ Fluorescein-AcguA-Dabcyl 3′ (NACGUAN; 5' fluorescein and 3' Dabcyl labels, nucleotide chemistry not given here) [SEQ ID NO:15] |  | − | + | +++ | +++ | + | −
5 | 5′ Fluorescein-AgucAA-Dabcyl 3′ (NAGUCAAN; 5' fluorescein and 3' Dabcyl labels, nucleotide chemistry not given here) [SEQ ID NO:10] |  | − | − | ++ | + | − | −
6 | 5′ Fluorescein-AagucA-Dabcyl 3′ (NAAGUCAN; 5' fluorescein and 3' Dabcyl labels, nucleotide chemistry not given here) [SEQ ID NO:24] |  | − | + | +++ | ++ | + | −
7 | 5′ Fluorescein-AcggA-Dabcyl 3′ (NACGGAN; 5' fluorescein and 3' Dabcyl labels, nucleotide chemistry not given here) [SEQ ID NO:14] |  | − | + | ++ | +++ | +++ | +
8 | Hind III: commercial enzyme from New England Biolabs, sold as RNase-free | − |  |  |  |  |  | 
9 | 5′ Fluorescein-AaggucA-QSY-7 3′ (NAAGGUCAN; 5' fluorescein and 3' QSY-7 labels, nucleotide chemistry not given here) [SEQ ID NO:28] |  | + | ++ | +++ | +++ | +++ | ++
10 | 5′ Fluorescein-AAcAA-Dabcyl 3′ (NAACAAN; 5' fluorescein and 3' Dabcyl labels, nucleotide chemistry not given here) [SEQ ID NO:5] |  | − | + | ++ | − | − | −
